Experimental data as given in patent EP2373670B1, “NOVEL AMINO SUBSTITUTED C-GLYCOSIDE DERIVATIVES AND USE THEREOF AS COSMETIC” (L'Oréal, priority 2008, dated 2010).

Legend:
Format in all cases: cell-based
kératinocytes [1] = experiment: Synthesis of sulfated glycosaminoglycans (radioactive label incorporation) in keratinocyte cultures; conditions: keratinocytes, second experiment, n=2
[2] = system: fibroblastes dermiques humains normaux; experiment: Synthesis of sulfated glycosaminoglycans (radioactive label incorporation) in fibroblast cultures; conditions: fibroblasts, second experiment, n=2; for activity at 100 µM / activity at 1000 µM: Fibroblast, control = 100, read-out: % (synthèse des glycosaminoglycanes par rapport au témoin)
kératinocytes [3] = experiment: Synthesis of sulfated glycosaminoglycans (radioactive label incorporation) in keratinocyte cultures; conditions: keratinocytes, n=3
Excerpt: (§1) Etude de l'effet de dérivés C-glycosides sur la synthèse des glycosaminoglycannes sulfatés sur fibroblastes et sur kératinocytes : • L'étude est faite par mesure de l'incorporation de glucosamine radioactive dans la matrice néosynthétisée par des cultures de fibroblastes dermiques humains normaux ou par des kératinocytes. L'incorporation de glucosamine radioactive indique une néosynthèse spécifique de glycosaminoglycannes via une incorporation de la forme acétylée de cette glucosamine.
Les cultures de kératinocytes sont effectuées en milieu Keratinocyte-SFM vendu par la société Gibco , en présence d'EGF (Epidermal Growth Factor) (0,25 ng/ml), d'extrait pituitaire (25 µg/ml) et de gentamycine (25 µg/ml).
(§2) Les fibroblastes et les kératinocytes ont été cultivés en plaques de 96 puits. A confluence, le milieu de culture a été remplacé par du milieu de culture adéquat contenant ou non (témoin) le composé à tester ou la référence, puis les cellules ont été incubées pendant 48 heures. Le marqueur radioactif 35 S-sulfate a été ajouté (40 µCi final) et les cellules ont été incubées pendant 24 heures supplémentaires. Toutes les conditions ont été réalisées 3 fois.
(§3) Les glycosaminoglycanes de la matrice extracellulaire ont été extraits avec un volume tampon chaotropique (Tris/HCl 50 mM, guanidine 4 M, EDTA 5 mM, pH 8,0). Les GAGs sulfatés ont été purifiés par chromatographie d'échanges d'ions : absorption des molécules anioniques sur billes de Q-Sépahrose dans des conditions de forte stringence, désorption des molécules peu et moyennement anioniques avec uns solution urée 6 M NaCl […], puis lavages. La radioactivité incorporée dans les molécules […] restées sur le support (GAGs majoritairement) a été mesurée par scintillation liquide. Les résultats sont évalués par apport à un témoin constitué par des cellules n'ayant pas été traitées avec un composé de formule (I). Un témoin positif (TGFβ à 10 ng/ml) connu pour stimuler la synthèse des GAGs est introduit dans le test effectéu sur fibroblastes comme référence positive. Un témoin positif (CaCl2 à 1,4 mM) connu pour stimuler la synthèse des GAGs est introduit dans le test effectué sur kératinocytes comme référence positive.
(§4) Les résultats sont exprimés en pourcentage de variation de la synthèse des glycosaminoglycanes par rapport au témoin.
(§5) On a effectué 3 essais pour le composé testé.
(§6) Les comparaisons des résultats obtenus pour un composé testé ont été réalisés à l'aide du test de Student.
(§7) L'écart type de la moyenne (esm) a été calculé selon la relation suivante : esm = écart type/((n))^(1/2) [formula] • n étant le nombre d'essais effectués.
(§8) Les valeurs mesurées sont données en coups par minute (cpm) • n : nombre d'essais effectués • p : intervalle de confiance • esm : écart type de la moyenne

[4] = system: fibroblastes dermiques humains normaux; experiment: Synthesis of sulfated glycosaminoglycans (radioactive label incorporation) in fibroblast cultures; conditions: for augmenter la synthèse des GAGs sulfatés: summary in words of the results on fibroblasts and keratinocytes
Excerpt: as §1
Les cultures de fibroblastes sont effectuées selon les méthodes classiques de culture cellulaire, à savoir en milieu DMEM vendu par la société Gibco, en présence de L-glutamine (2 mM), de pénicilline (50 Ul/ml) et de 10% de sérum de veau foetal (Gibco).
as §2, §3, §4, §5, §6, §7, §8

[5] = Keratinocyte, 0,1 mM, control = 100, read-out: % (synthèse des glycosaminoglycanes par rapport au témoin)
[6] = Keratinocyte, 1 mM, control = 100, read-out: % (synthèse des glycosaminoglycanes par rapport au témoin)

SMILES	activity at 100 µM (kératinocytes [1]; [5]) [%]	activity at 1000 µM (kératinocytes [1]; [6]) [%]	Valeur moyenne (kératinocytes [1]; 0,1 mM) [cpm]	Valeur moyenne (kératinocytes [1]; 1 mM) [cpm]	activity at 100 µM ([2]; 0,1 mM) [%]	activity at 1000 µM ([2]; 1 mM) [%]	Valeur moyenne ([2]; 0,1 mM) [cpm]	Valeur moyenne ([2]; 1 mM) [cpm]	augmenter la synthèse des GAGs sulfatés [4]	other results
CC(C[C@@H]1OC[C@@H](O)[C@H](O)[C@H]1O)NCCCO (stereo partly drawn) [1-[2-(3-hydroxy-propylamino)-propyl]-C-β-D-xylopyranose]	99	145	12660	18691	113	121	2856	3039		
CNC(C)C[C@@H]1OC[C@@H](O)[C@H](O)[C@H]1O (stereo partly drawn) [1-[2-(méthylamino)-propyl]-C-β-D-xylopyranose]	93	139	11922	17916	102	106	2569	2659		
CC(N)C[C@@H]1OC[C@@H](O)[C@H](O)[C@H]1O (stereo partly drawn) [1-[2-amino-propyl]-C-β-D-xylopyranose]	113	225	14465	28870	91	139	2301	3507		
[Ca+2].[Cl-].[Cl-] [CaCl2, reference compound]										% (synthèse des glycosaminoglycanes par rapport au témoin) (kératinocytes [3]; positive control CaCl2 at 1,4 mM, control = 100, 1400 µM): 117%; Valeur moyenne (kératinocytes [3]; positive control CaCl2 at 1,4 mM): 5273 cpm
CCOC(=O)C(Cc1ccccc1)NC(C)CC1OCC(O)C(O)C1O [Composé de l'exemple 5, chlorhydratede l'ester éthyliquede l'acide 2R-[1-méthyl 2-(C-β-D-xylopyranoside) éthyl]-amino 3-phényl propanoïque]									très efficaces	activity at 370 µM ([4]; Fibroblast, fibroblasts, 0,37 mM, control = 100, n=3, read-out: % (synthèse des glycosaminoglycanes par rapport au témoin)): 616%; activity at 1110 µM ([4]; Fibroblast, fibroblasts, 1,11 mM, control = 100, n=3, read-out: % (synthèse des glycosaminoglycanes par rapport au témoin)): 605%; Valeur moyenne ([4]; fibroblasts, 0,37 mM, n=3): 14373 cpm; Valeur moyenne ([4]; fibroblasts, 1,11 mM, n=3): 14111 cpm; activity at 66 µM (kératinocytes [3]; Keratinocyte, 66 µM, control = 100, read-out: % (synthèse des glycosaminoglycanes par rapport au témoin)): 438%; activity at 200 µM (kératinocytes [3]; Keratinocyte, 200 µM, control = 100, read-out: % (synthèse des glycosaminoglycanes par rapport au témoin)): 570%; Valeur moyenne (kératinocytes [3]; 66 µM): 21975 cpm; Valeur moyenne (kératinocytes [3]; 200 µM): 29007 cpm
CCCCCCNC(C)C[C@@H]1OC[C@@H](O)[C@H](O)[C@H]1O (some centres unmarked) [Composé de l'exemple 10]	427	255	54897	32733	553	595	13925	14992	très efficaces	
CCCNC(C)C[C@@H]1OC[C@@H](O)[C@H](O)[C@H]1O (some centres unmarked) [Composé de l'exemple 11]					127	441	3197	11109	très efficaces	activity at 0.1 µM (kératinocytes [1]; Keratinocyte, 0,1 µM, control = 100, read-out: % (synthèse des glycosaminoglycanes par rapport au témoin)): 112%; activity at 1 µM (kératinocytes [1]; Keratinocyte, 1 µM, control = 100, read-out: % (synthèse des glycosaminoglycanes par rapport au témoin)): 351%; Valeur moyenne (kératinocytes [1]; 0,1 µM): 14408 cpm; Valeur moyenne (kératinocytes [1]; 1 µM): 45124 cpm
